Results on 17 molecules are retold here after patent US9580432B2, “Fused pyrimidine compound or salt thereof” (TAIHO PHARMACEUTICAL CO., LTD., priority 2013, dated 2017).

The test system of experiment [1] is purified recombinant human EGFR protein / BTK. Nature of the experiment: BTK inhibition selectivity compared with EGFR kinase inhibitory activity (in vitro). The following applies: EGFR assay ATP 1.5 μM. It is filed as biochemical. As for the experimental part:
1) Measurement of BTK Inhibitory Activity
2) Measurement of EGFR Inhibitory Activity
Therefore, a biotinated peptide (biotin-[…]) was produced by referring to the amino acid sequence of the peptide. The purified recombinant human EGFR protein used in the test was purchased from Carna Biosciences, Inc.
With regard to the measurement of the inhibitory activity of the compounds, firstly, the compounds of the present invention were diluted stepwise with dimethyl sulfoxide (DMSO). […] The reaction was terminated by adding EDTA thereto in order to obtain a final concentration of 24 mM. Subsequently, a detection liquid containing Eu-labeled anti-phosphorylated tyrosine antibody PT66 (PerkinElmer, Inc.) and […] APC-SA (PerkinElmer, Inc.) was added thereto, and the system was left to stand for 2 hours or longer at room temperature.
3) BTK Inhibition Selectivity

The test system of a further experiment is A431 cells / TMD8 cells. As to the kind of experiment: Proliferation inhibitory activity against cell lines expressing BTK and EGFR (in vitro), comparison of selectivity. It is filed as cell-based, human. To be noted: ratio from GI50 (nM), 3 days culture, CELLTITER GLO. The text has this: TMD8 cells, which are of a diffuse large B-cell lymphoma cell line expressing BTK, were suspended in RPMI1640 medium (manufactured by Life Technologies Corp.) containing 10% fetal bovine serum. A431 cells, which are of an EGFR-overexpressing, highly activated human epidermoid carcinoma cell line, were suspended in DMEM, high glucose medium (manufactured by Life Technologies Corp.) containing 10% fetal bovine serum. The cell suspensions were inoculated into each well of 384-well flat-bottomed microplates, and the cells were cultured for 1 day at 37° C. in an incubator containing 5% carbon dioxide gas. […] A DMSO solution of the test compounds was diluted with the medium used in the suspension of the each cells, and this was added to each of the wells of the cell culture plates such that the final concentration of DMSO would be 0.2%. The cells were further cultured for 3 days at 37° C. in an incubator containing 5% carbon dioxide gas. […] Proliferation inhibition ratio (%)=(C−T)/(C−C0)×100
T: Luminescence intensity of a well in which the test compound was added
C: Luminescence intensity of a well in which the test compound was not added
C0: Luminescence intensity of a well measured before the addition of the test compound
When a comparison is made between the cell proliferation inhibitory activity against A431 cells that depends on the EGFR proliferation signaling and the cell proliferation inhibitory activity against TMD8 cells that depends on the BTK proliferation signaling, the influence of the respective kinases at a cellular level is able to be evaluated. That is, when the “A431 cell proliferation inhibition ratio/TMD8 cell proliferation inhibition ratio” is calculated, it is contemplated that as the value of the ratio is larger, the selectivity to BTK over EGFR in the cells is higher.
(ATP-based viability assays read luminescence as a measure of living cells.)

In experiment [2] the target is purified recombinant human BTK protein (Homo sapiens (Human), UniProt Q06187). Nature of the experiment: Measurement of BTK inhibitory activity (in vitro). It is filed as biochemical. To be noted: FL-PEPTIDE 2 substrate 1 μM, ATP 45 μM, 40 minutes at 25° C. In short, it runs like this: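 Recombinant human BTK with FL-PEPTIDE 2 substrate (1 μM), 45 μM ATP and 10 mM MgCl2 in 20 mM HEPES pH 7.5, 2 mM DTT, 0.01% Triton X-100, 5% DMSO; 40 min at 25° C. Reaction stopped with 30 mM EDTA. Phosphorylated and unphosphorylated peptide separated and detected by microchannel capillary electrophoresis.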

Some results are limits rather than exact numbers.

Sequence of purified recombinant human BTK protein (Q06187 whole entry): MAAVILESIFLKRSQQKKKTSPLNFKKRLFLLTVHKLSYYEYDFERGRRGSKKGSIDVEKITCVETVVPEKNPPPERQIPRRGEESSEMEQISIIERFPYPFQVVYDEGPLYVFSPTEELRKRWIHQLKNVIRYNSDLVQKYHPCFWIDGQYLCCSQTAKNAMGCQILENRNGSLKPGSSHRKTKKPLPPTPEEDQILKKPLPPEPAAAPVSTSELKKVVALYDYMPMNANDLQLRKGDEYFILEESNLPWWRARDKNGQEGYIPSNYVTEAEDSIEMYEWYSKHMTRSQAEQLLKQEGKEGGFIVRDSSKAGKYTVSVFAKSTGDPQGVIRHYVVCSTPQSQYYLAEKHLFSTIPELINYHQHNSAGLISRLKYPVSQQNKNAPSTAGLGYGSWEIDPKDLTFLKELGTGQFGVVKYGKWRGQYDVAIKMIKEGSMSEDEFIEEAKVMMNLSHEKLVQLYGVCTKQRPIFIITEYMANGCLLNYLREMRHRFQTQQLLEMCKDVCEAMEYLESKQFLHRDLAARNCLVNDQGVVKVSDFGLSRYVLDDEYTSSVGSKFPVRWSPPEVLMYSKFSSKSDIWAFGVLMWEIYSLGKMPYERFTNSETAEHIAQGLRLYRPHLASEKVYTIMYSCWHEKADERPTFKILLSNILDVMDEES

Take `C=CC(=O)N1CCCC(Cn2nc(C(=O)Nc3nc4ccccc4o3)c3c(N)ncnc32)C1` (stereo not shown) [Example 67, 1-((1-acryloylpiperidin-3-yl)methyl)-4-amino-N-(benzo[d]oxazol-2-yl)-1H-pyrazolo[3,4-d]pyrimidine-3-carboxamide]: the “EGFR inhibitory activity IC50 value (nM)/BTK inhibitory activity IC50 value (nM)” value (from here on “EGFR inhibitory activity IC50 value”) in experiment [1] is reported as 18.0. For the same molecule, the “A431 cell proliferation inhibition ratio/TMD8 cell proliferation inhibitio ratio” value in the experiment with A431 cells / TMD8 cells is more than 2168.7. Moreover, the IC50 in experiment [2] was 14 nM.

As for `CCN(CC)C/C=C/C(=O)N1CC[C@@H](n2nc(C(=O)Nc3nc4cc(Cl)ccc4o3)c3c(N)ncnc32)C1` [Example 34, (R,E)-4-amino-N-(5-chlorobenzo[d]oxazol-2-yl)-1-(1-(4-(diethylamino)but-2-enoyl)pyrrolidin-3-yl)-1H-pyrazolo[3,4-d]pyrimidine-3-carboxamide], the “EGFR inhibitory activity IC50 value” value in experiment [1] is reported as 79.3. Moreover, the “A431 cell proliferation inhibition ratio/TMD8 cell proliferation inhibitio ratio” value in the experiment with A431 cells / TMD8 cells is given as more than 22471.9. For the same molecule, the IC50 in experiment [2] stood at 0.79 nM.

For `Nc1ncnc2c1c(C(=O)Nc1nc3cc(Cl)ccc3o1)nn2[C@@H]1CCCN(C(=O)/C=C/CN2CCCCC2)C1` [Example 20, (R,E)-4-amino-N-(5-chlorobenzo[d]oxazol-2-yl)-1-(1-(4-(piperidin-1-yl)but-2-enoyl)piperidin-3-yl)-1H-pyrazolo[3,4-d]pyrimidine-3-carboxamide], in experiment [1], the “EGFR inhibitory activity IC50 value” value came to 138.2. Also, in the experiment with A431 cells / TMD8 cells, the “A431 cell proliferation inhibition ratio/TMD8 cell proliferation inhibitio ratio” value was more than 19120.5. Further, the IC50 in experiment [2] came to 0.801 nM.

`C=CC(=O)N1CC[C@@H](n2nc(C(=O)Nc3nc4cc(CCOC)ccc4o3)c3c(N)ncnc32)C1` [Example 40, (R)-1-(1-acryloylpyrrolidin-3-yl)-4-amino-N-(5-(2-methoxyethyl)benzo[d]oxazol-2-yl)-1H-pyrazolo[3,4-d]pyrimidine-3-carboxamide]: the “EGFR inhibitory activity IC50 value” value in experiment [1] is 10.0. Further, in the experiment on A431 cells / TMD8 cells, the “A431 cell proliferation inhibition ratio/TMD8 cell proliferation inhibitio ratio” value is reported as more than 3159.6. Moreover, in experiment [2], the concentration for half-maximal inhibition (IC50) was found to be 2.09 nM.

Take `Nc1ncnc2c1c(C(=O)Nc1nc3cc(Cl)ccc3o1)cn2[C@@H]1CCN(C(=O)/C=C/CN2CCCCC2)C1` [Example 54, (R,E)-4-amino-N-(5-chlorobenzo[d]oxazol-2-yl)-7-(1-(4-(piperidin-1-yl)but-2-enoyl)pyrrolidin-3-yl) 7H-pyrrolo[2,3-d]pyrimidine-5-carboxamide]: the “EGFR inhibitory activity IC50 value” value in experiment [1] is reported as 37.1. Besides, the “A431 cell proliferation inhibition ratio/TMD8 cell proliferation inhibitio ratio” value with A431 cells / TMD8 cells is given as more than 2675.9. For the same molecule, the half-maximal inhibitory concentration (IC50) in experiment [2] came out at 1.44 nM.

`CCN(CC)C/C=C/C(=O)N1CC[C@@H](n2cc(C(=O)Nc3nc4cc(Cl)ccc4o3)c3c(N)ncnc32)C1` [Example 51, (R,E)-4-amino-N-(5-chlorobenzo[d]oxazol-2-yl)-7-(1-(4-(diethylamino)but-2-enoyl)pyrrolidin-3-yl) 7H-pyrrolo[2,3-d]pyrimidine-5-carboxamide]: the “EGFR inhibitory activity IC50 value” value in experiment [1] came to 31.1. Besides, the “A431 cell proliferation inhibition ratio/TMD8 cell proliferation inhibitio ratio” value in the experiment on A431 cells / TMD8 cells is more than 2044.6. Moreover, the IC50 in experiment [2] is 1.48 nM.

Consider `C=CC(=O)N1CC(Cn2nc(C(=O)Nc3nc4ccccc4o3)c3c(N)ncnc32)C1` [Example 70, 1-((1-acryloylazetidin-3-yl)methyl)-4-amino-N-(benzo[d]oxazol-2-yl)-1H-pyrazolo[3,4-d]pyrimidine-3-carboxamide], for which, in experiment [1], the “EGFR inhibitory activity IC50 value” value was found to be 12.2. In the experiment on A431 cells / TMD8 cells, the “A431 cell proliferation inhibition ratio/TMD8 cell proliferation inhibitio ratio” value is reported as more than 8369.4. The IC50 in experiment [2] was 3.17 nM.

Regarding `CN(C)C/C=C/C(=O)N1CCC[C@@H](n2nc(C(=O)Nc3nc4cc(Cl)ccc4o3)c3c(N)ncnc32)C1` [Example 15, (R,E)-4-amino-N-(5-chlorobenzo[d]oxazol-2-yl)-1-(1-(4-(dimethylamino)but-2-enoyl)piperidin-3-yl)-1H-pyrazolo[3,4-d]pyrimidine-3-carboxamide], the “EGFR inhibitory activity IC50 value” value in experiment [1] stood at 145.0. In the experiment on A431 cells / TMD8 cells, the “A431 cell proliferation inhibition ratio/TMD8 cell proliferation inhibitio ratio” value came out at 16442.0. Also, the IC50 in experiment [2] is 0.786 nM.

As for `CC(C)N(C)C/C=C/C(=O)N1CC[C@@H](n2nc(C(=O)Nc3nc4cc(Cl)ccc4o3)c3c(N)ncnc32)C1` [Example 35, (R,E)-4-amino-N-(5-chlorobenzo[d]oxazol-2-yl)-1-(1-(4-(isopropyl(methyl)amino)but-2-enoyl)pyrrolidin-3-yl)-1H-pyrazolo[3,4-d]pyrimidine-3-carboxamide], the “EGFR inhibitory activity IC50 value” value in experiment [1] came out at 35.1. Besides, the “A431 cell proliferation inhibition ratio/TMD8 cell proliferation inhibitio ratio” value in the experiment on A431 cells / TMD8 cells is reported as more than 18691.6. Also, the half-inhibitory concentration (IC50) in experiment [2] came to 0.792 nM.

For `C=CC(=O)N1CC(Cn2nc(C(=O)Nc3nc4cc(Cl)ccc4o3)c3c(N)ncnc32)C1` [Example 76, 1-((1-acryloylazetidin-3-yl)methyl)-4-amino-N-(5-chlorobenzo[d]oxazol-2-yl)-1H-pyrazolo[3,4-d]pyrimidine-3-carboxamide], the “EGFR inhibitory activity IC50 value” value in experiment [1] worked out at 11.4. The “A431 cell proliferation inhibition ratio/TMD8 cell proliferation inhibitio ratio” value with A431 cells / TMD8 cells is listed as more than 2345.8.

For `C=CC(=O)N1CC(Cn2nc(C(=O)Nc3nc4cc(F)ccc4o3)c3c(N)ncnc32)C1` [Example 75, 1-((1-acryloylazetidin-3-yl)methyl)-4-amino-N-(5-fluorobenzo[d]oxazol-2-yl)-1H-pyrazolo[3,4-d]pyrimidine-3-carboxamide], in experiment [1], the “EGFR inhibitory activity IC50 value” value worked out at 58.2. Further, the “A431 cell proliferation inhibition ratio/TMD8 cell proliferation inhibitio ratio” value in the experiment on A431 cells / TMD8 cells is recorded as more than 1643.7.

Turning to `C=CC(=O)N[C@H]1CC[C@@H](n2nc(C(=O)Nc3nc4cc(Cl)ccc4o3)c3c(N)ncnc32)CC1` [Example 78, 1-((1S,4S)-4-acrylamidocyclohexyl)-4-amino-N-(5-chlorobenzo[d]oxazol-2-yl)-1H-pyrazolo[3,4-d]pyrimidine-3-carboxamide], in experiment [1], the “EGFR inhibitory activity IC50 value” value was 100.7. Moreover, the “A431 cell proliferation inhibition ratio/TMD8 cell proliferation inhibitio ratio” value in the experiment with A431 cells / TMD8 cells is recorded as more than 23596.7.

Turning to `C=CC(=O)N[C@H]1CC[C@@H](n2nc(C(=O)Nc3nc4cc(F)ccc4o3)c3c(N)ncnc32)CC1` [Example 81, 1-((1S,4S)-4-acrylamidocyclohexyl)-4-amino-N-(5-fluorobenzo[d]oxazol-2-yl)-1H-pyrazolo[3,4-d]pyrimidine-3-carboxamide], in experiment [1], the “EGFR inhibitory activity IC50 value” value is 204.9. For the same molecule, the “A431 cell proliferation inhibition ratio/TMD8 cell proliferation inhibitio ratio” value with A431 cells / TMD8 cells came to 8346.7.

On to `C=CC(=O)N1CCC(Cn2nc(C(=O)Nc3nc4cc(F)ccc4o3)c3c(N)ncnc32)CC1` [Example 77, 1-((1-acryloylpiperidin-4-yl)methyl)-4-amino-N-(5-fluorobenzo[d]oxazol-2-yl)-1H-pyrazolo[3,4-d]pyrimidine-3-carboxamide], for which the “EGFR inhibitory activity IC50 value” value in experiment [1] was 203.7. In addition, in the experiment with A431 cells / TMD8 cells, the “A431 cell proliferation inhibition ratio/TMD8 cell proliferation inhibitio ratio” value is on record as more than 6793.5.

With `C=CC(=O)N1CCC(n2nc(C(=O)Nc3nc4cc(F)ccc4o3)c3c(N)ncnc32)C1` (stereo not shown) [Example 83, 1-(1-acryloylpyrrolidin-3-yl)-4-amino-N-(5-fluorobenzo[d]oxazol-2-yl)-1H-pyrazolo[3,4-d]pyrimidine-3-carboxamide], in experiment [1], the “EGFR inhibitory activity IC50 value” value is recorded as 39.6. Also, the “A431 cell proliferation inhibition ratio/TMD8 cell proliferation inhibitio ratio” value in the experiment on A431 cells / TMD8 cells is recorded as more than 18797.0.

On to `C=CC(=O)N1CCC(Cn2nc(C(=O)Nc3nc4cc(Cl)ccc4o3)c3c(N)ncnc32)CC1` [Example 80, 1-((1-acryloylpiperidin-4-yl)methyl)-4-amino-N-(5-chlorobenzo[d]oxazol-2-yl)-1H-pyrazolo[3,4-d]pyrimidine-3-carboxamide], for which, in experiment [1], the “EGFR inhibitory activity IC50 value” value came out at 75.4. In addition, the “A431 cell proliferation inhibition ratio/TMD8 cell proliferation inhibitio ratio” value in the experiment on A431 cells / TMD8 cells is 14348.9.

For `C=CC(=O)N1CCC(n2nc(C(=O)Nc3nc4ccccc4o3)c3c(N)ncnc32)C1` (stereo not shown) [Example 82, 1-(1-acryloylpyrrolidin-3-yl)-4-amino-N-(benzo[d]oxazol-2-yl)-1H-pyrazolo[3,4-d]pyrimidine-3-carboxamide], the “EGFR inhibitory activity IC50 value” value in experiment [1] was 10.9. The “A431 cell proliferation inhibition ratio/TMD8 cell proliferation inhibitio ratio” value in the experiment on A431 cells / TMD8 cells worked out at 8143.0.

As usually defined, the IC50 is the point on the concentration scale where inhibition reaches its midpoint.
